Source: patent US20220073532A1, “INHIBITORS OF CGAS ACTIVITY AS THERAPEUTIC AGENTS” (BELLBROOK LABS, LLC, priority 2019, published 2022)
Converted amounts (≈) assume the structure as drawn.

Experiments:
THP1 cGAS KO cells = experiment: Specificity test in THP-Dual cGAS knockout cells; type: cell-based, human
Source text: FIG. 5 includes (A) a schematic showing the THP1 dual-cell reporter system: secreted luciferase reports on IRF3-driven transcription; secreted alkaline phosphatase reports on NFκB-driven transcription, both downstream of cGAS/STING. THP-Dual cGAS knockout cells are used to test for non-specific effects; (B) a plot of the dose response for inhibition of Luc expression by Compound 15; (C) a plot of the dose response for inhibition of Luc expression by the TBK1 inhibitor, BX-795; and (D) a plot of the dose response for inhibition of SEAP expression by Compound 15.
(§1) IFN induction in human monocyte cell lines: The human monocyte cell line THP-1 gives a robust cGAS/STING-dependent type I IFN response and has been used extensively for studies on the pathway. Typically, cells are stimulated by transfection with dsDNA and gene expression is assessed using an ELISA for IFNβ, a reporter gene assay, and/or cGAS/STING pathway markers such as STING phosphorylation. These assays were validated using the TBK1 inhibitor, BX-795, which acts downstream of cGAS/STING, as a probe; THP-1 Dual cells (Invivogen, San Diego) are used as the reporter cell line for routine compound testing (FIG. 5A). These assays were optimized, including equalizing responses with transfected DNA and cGAMP and comparing responses between undifferentiated cells and cells that have been differentiated to macrophages (which show little difference). […] Stimulation of THP-1 Dual cells with damage-associated molecular pattern molecules (DAMPs) that act through pattern recognition receptors other than cGAS provides another way to confirm the specificity of putative cGAS inhibitors.

[1] = test system: MDCK-MDR (Madin-Darby Canine Kidney cells-Multi Drug Resistance pump); experiment: MDCK-MDR permeability; type: in vitro ADME
Experimental: (§2) ADME/PK: Compounds are tested in Caco-2 and MDR1-MDCK permeability assays to provide a measure of intestinal absorption, blood-brain-permeability and efflux by P-glycoprotein (P-gp), a frequent obstacle to effective CNS delivery. CNS drugs are associated with high passive membrane permeability (Papp>1×10^−6 cm/sec) and have low efflux ratios (Papp(B-A)/Papp(A-B)<2.5). Metabolic stability is tested using mouse and human liver microsomes incubated with NADPH for CYP-dependent metabolism and with UDPGA for glucuronidation. Compounds are tested for pharmacokinetics and brain penetration in mice using oral, intravenous and intraperitoneal administration.

MDR1 (P-glycoprotein) = experiment: MDCK-MDR permeability; type: in vitro ADME, canine; conditions: dog, MDCK-MDR1
Experimental: as §2

[2] = test system: Kinase, PDE, GTPase, ENPP1 (Abl1, PKA, TBK1, Rac1, PDE4A, ENPP1); experiment: Selectivity panel of nucleotide-utilizing enzymes; type: biochemical
Experimental: Selectivity profiling: A panel of nucleotide-utilizing enzymes that included kinases (Abl1, PKA, TBK1—which transduces cGAS/STING signals, see FIG. 5A) a GTPase (Rac1), a phosphodiesterase (PDE4A), and ENPP1, a nucleotidase that degrades cGAMP, was used preliminarily. cGAS assays were used to perform dose response measurements with cGAS inhibitors. In addition to these enzymes, inhibitors are tested with three other members of the oligoadenylate synthases (OAS), nucleic acid sensors that activate innate immunity via production of short, 2′-5′ oligoadenylate second messengers. Methods for expression and purification of the human and/or porcine enzymes in E. coli or baculovirus-infected insect cells have been developed as well as a simple, absorbance-based assay using commercially available pyrophosphate kit. In addition, an FP-based assay (competitive displacement of a fluor-cGAMP tracer) is developed to test compounds as ligands for STING (which could be one explanation for the partial activity of Compound 15 in cells stimulated with cGAMP) (FIG. 5).

[3] = test system: NFκB-driven SEAP expression in THP-1 Dual cells; experiment: THP-1 Dual NFκB-SEAP reporter assay; type: cell-based, human; conditions: THP-1 Dual cells
Experimental: as §1

cGAS = cGAS (Homo sapiens, UniProt Q8N884); experiment: SPR / biophysical binding to cGAS; conditions: enzymatic analysis and SPR, TSA
Source text: Following confirmation of hits at three concentrations and removal of compounds with visually evident reactivity or metabolic liabilities, non-stoichiometric inhibitors, aggregators, DNA intercalators and redox-active compounds were triaged (FIG. 2E) using established assays. […] Initial SAR based on more than 100 commercially available analogs provided additional confidence that the compounds were bonafide inhibitors, and informed potential scaffold hops and toleration for modifications.
A highly efficient platform for preclinical drug discovery (FIG. 3) was assembled, providing for development of cGAS inhibitors, which is improved by the addition of a powerful computational modeling method and in vivo PK studies (FIG. 3). […]
Biochemical and biophysical analysis: Potency and MOA studies, including Mn^2+ sensitivity, are performed using the cGAS enzymatic assay. […] Competition with ATP and GTP is assessed by comparing basal IC50 values to those in the presence of saturating ATP or GTP, and subsequently confirmed by measuring velocity vs. substrate at varying ATP or GTP levels. […]

[4] = Mouse microsomal stability (NADPH); type: in vitro ADME; conditions: liver microsomes, read-out: Mouse MS Stability (NADPH) t1/2
Experimental: as §2

[5] = Human microsomal stability (NADPH); type: in vitro ADME; conditions: liver microsomes, read-out: Human MS Stability (NADPH) t1/2
Experimental: as §2

Ksol (PBS, pH 7.4) = type: physicochemical; conditions: pH 7.4, aqueous buffer, kinetic from dmso stock
[6] = test system: IRF3-driven Luc expression in THP-1 Dual cells; experiment: THP-1 Dual IRF3-Luc reporter assay; type: cell-based, human
Experimental: as §1

Sequence of cGAS (Q8N884 whole entry): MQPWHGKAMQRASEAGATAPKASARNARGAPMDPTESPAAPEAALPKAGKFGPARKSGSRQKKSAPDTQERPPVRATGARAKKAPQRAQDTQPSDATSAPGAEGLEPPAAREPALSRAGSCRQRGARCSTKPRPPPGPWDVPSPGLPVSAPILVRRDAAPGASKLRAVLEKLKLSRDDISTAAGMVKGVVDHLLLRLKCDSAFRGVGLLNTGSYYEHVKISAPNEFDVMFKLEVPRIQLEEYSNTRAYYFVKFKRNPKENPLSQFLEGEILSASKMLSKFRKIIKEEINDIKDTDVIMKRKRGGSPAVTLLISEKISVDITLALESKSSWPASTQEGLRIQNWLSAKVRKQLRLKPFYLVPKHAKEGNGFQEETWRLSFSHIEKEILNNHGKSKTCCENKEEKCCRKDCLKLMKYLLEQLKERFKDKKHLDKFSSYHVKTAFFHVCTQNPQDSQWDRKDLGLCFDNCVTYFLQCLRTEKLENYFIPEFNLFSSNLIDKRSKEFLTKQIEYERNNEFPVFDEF

MDR-1-mediated export [1]: no indication of MDR-1-mediated export
efflux ratio (MDR1 (P-glycoprotein)): 0.4
Papp A→B (MDR1 (P-glycoprotein); A→B): 9.8 ×10⁻⁶ cm/s
Off-Target Activity (Kinase, PDE, GTPase, ENPP1) [2]: None
inhibitory activity with a panel of nucleotide-utilizing enzymes ([2]; at 200 μM): lack of inhibitory activity
binding stoichiometry to cGAS (cGAS): Stoichiometric binding (1:1)
half-life [4]: > 2 h
half-life [5]: > 2 h
solubility kinetic (Ksol (PBS, pH 7.4)): 520 µM (≈ 155 µg/mL)
Compound: Cc1nc(N2CCC[C@H]2C(=O)O)c2oc3ccccc3c2n1 [Compound 15, (2-methylbenzofuro[3,2-d]pyrimidin-4-yl)-L-proline]
effect on IRF3-driven Luc expression in THP1 cGAS KO cells stimulated with LPS (THP1 cGAS KO cells; LPS-stimulated, cGAS KO): no effect
inhibition in cGAMP-stimulated cells lacking cGAS (THP1 cGAS KO cells; cGAMP-stimulated, cGAS knockout): essentially no inhibition
inhibition of NFκB (SEAP)-driven transcription [3]: 50-75%
inhibition of IRF3 (Luc)-driven transcription ([6]; THP-1 Dual cells): 50-75%
inhibition in cGAMP-stimulated cells with cGAS present ([6]; cGAMP-stimulated THP-1 Dual cells): still caused inhibition, though to a lesser degree
cGAS-dependent cellular activity ([6]; human monocyte cell line THP-1): cGAS-dependent inhibition of type I IFN
